Measured values as given in ChEMBL document CHEMBL1142522, “Hedgehog/GLI-mediated transcriptional inhibitors from Zizyphus cambodiana” (Bioorg Med Chem, 2008).
Activity calls are given as the source filed them. The rule behind the calls is not given here.

Legend:
[1] = molecular target: T1, Zinc finger protein GLI1 (Homo sapiens) (UniProt P08151); assay: Inhibition of GLI1-mediated transcriptional activity in human HaCaT cells by luciferase based reporter gene assay; assay type: cell-based
T1 sequence (whole entry): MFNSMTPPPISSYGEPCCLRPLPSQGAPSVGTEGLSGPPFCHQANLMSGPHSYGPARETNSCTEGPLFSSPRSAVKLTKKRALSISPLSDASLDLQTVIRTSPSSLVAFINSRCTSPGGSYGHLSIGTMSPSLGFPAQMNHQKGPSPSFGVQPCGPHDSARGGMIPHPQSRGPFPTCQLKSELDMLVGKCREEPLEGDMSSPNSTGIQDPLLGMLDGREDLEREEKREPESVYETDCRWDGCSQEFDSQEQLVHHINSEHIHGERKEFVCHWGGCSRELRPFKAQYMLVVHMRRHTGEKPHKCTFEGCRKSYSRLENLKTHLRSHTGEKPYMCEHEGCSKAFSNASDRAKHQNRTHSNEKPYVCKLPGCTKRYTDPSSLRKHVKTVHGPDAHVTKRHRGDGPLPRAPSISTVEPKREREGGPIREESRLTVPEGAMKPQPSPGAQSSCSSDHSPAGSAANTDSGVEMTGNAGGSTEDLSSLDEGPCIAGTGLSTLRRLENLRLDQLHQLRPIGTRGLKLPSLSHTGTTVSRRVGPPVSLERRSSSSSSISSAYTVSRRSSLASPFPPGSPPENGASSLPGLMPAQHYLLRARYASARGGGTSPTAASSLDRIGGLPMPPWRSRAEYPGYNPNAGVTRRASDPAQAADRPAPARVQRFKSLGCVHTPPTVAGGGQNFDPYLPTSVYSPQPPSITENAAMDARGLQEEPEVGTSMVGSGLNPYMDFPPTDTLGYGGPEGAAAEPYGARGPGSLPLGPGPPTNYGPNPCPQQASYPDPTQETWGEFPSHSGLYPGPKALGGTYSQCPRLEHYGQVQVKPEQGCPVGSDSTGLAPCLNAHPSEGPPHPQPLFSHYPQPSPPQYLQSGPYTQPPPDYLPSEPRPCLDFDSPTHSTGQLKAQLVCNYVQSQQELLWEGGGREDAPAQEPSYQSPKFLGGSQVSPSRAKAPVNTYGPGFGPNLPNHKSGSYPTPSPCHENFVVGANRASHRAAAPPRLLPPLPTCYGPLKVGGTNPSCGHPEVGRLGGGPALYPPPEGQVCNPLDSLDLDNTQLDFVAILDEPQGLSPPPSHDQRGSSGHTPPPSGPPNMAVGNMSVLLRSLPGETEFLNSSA

PANC-1 [2] = assay: Cytotoxicity against human PANC1 after 24 hrs by fluorometric microculture cytotoxicity assay; assay type: functional, cell-based; settings: PANC-1, 24 h
DU-145 [3] = assay: Cytotoxicity against human DU145 cells after 24 hrs by fluorometric microculture cytotoxicity assay; assay type: functional, cell-based; settings: DU-145, 24 h
[4] = Cytotoxicity against mouse C3H10T1/2 cells after 24 hrs by fluorometric microculture cytotoxicity assay; assay type: cell-based; settings: C3H 10T1/2, 24 h
[5] = molecular target: T1, Zinc finger protein GLI1 (Homo sapiens); assay: Effect on Hh/GLI-mediated transcription in human HaCaT cells assessed as reduction of PTCH protein expression by Western blot; assay type: cell-based
[6] = molecular target: T1, Zinc finger protein GLI1 (Homo sapiens); assay: Effect on Hh/GLI-mediated transcription in human HaCaT cells assessed as reduction of BCL2 protein expression by Western blot; assay type: cell-based
HaCaT = assay: Decrease in GLI1 protein expression in human HaCaT cells by Western blot; assay type: functional, cell-based
[7] = molecular target: T1, Zinc finger protein GLI1 (Homo sapiens); assay: Effect on Hh/GLI-mediated transcription in human PANC1 assessed as decrease in […] protein expression by Western blot; assay type: cell-based; settings: PANC-1
[8] = molecular target: T1, Zinc finger protein GLI1 (Homo sapiens); assay: Effect on Hh/GLI-mediated transcription in human PANC1 assessed as decrease in BCL2 protein expression by Western blot; assay type: cell-based; settings: PANC-1
PANC-1 [9] = assay: Cytotoxicity against human PANC1 at 100 uM after 24 hrs by fluorometric microculture cytotoxicity assay; assay type: functional, cell-based
DU-145 [10] = assay: Cytotoxicity against human DU145 cells at 100 uM after 24 hrs by fluorometric microculture cytotoxicity assay; assay type: functional, cell-based
[11] = molecular target: T1, Zinc finger protein GLI1 (Homo sapiens); assay: Inhibition of GLI-mediated […] mRNA production in human PANC1 cells by RT-PCR analysis; assay type: cell-based; settings: PANC-1

SMILES	Activity [1]	IC50 (PANC-1 [2])	IC50 (DU-145 [3])	IC50 [4]	Activity [5]	Activity [6]	Activity (HaCaT)	Activity [7]	Activity [8]	Activity (PANC-1 [9])	Activity (DU-145 [10])	Activity [11]
C=C(C)[C@@H]1CC[C@]2(C(=O)O)CC[C@]3(C)[C@H](CC[C@@H]4[C@@]5(C)C[C@@H](O)[C@H](O)C(C)(C)[C@@H]5CC[C@]43C)[C@@H]12 [ALPHITOLIC ACID]	Dose-dependent effect	41 µM	70 µM	145 µM								
C=C(C)[C@@H]1CC[C@]2(C(=O)O)CC[C@]3(C)[C@H](CC[C@@H]4[C@@]5(C)CC[C@H](O)C(C)(C)[C@@H]5CC[C@]43C)[C@@H]12 [BETULINIC ACID]	Dose-dependent effect	44 µM	37 µM	82 µM	Active	Active	Active	Active	Active			
C=C(C)[C@@H]1CC[C@]2(C(=O)O)CC[C@]3(C)[C@H](CC[C@@H]4[C@@]5(C)[C@H](CO)[C@@H](O)C(C)(C)[C@@H]5CC[C@]43C)[C@@H]12 [CEANOTHANOLIC ACID]		> 200 µM	> 200 µM	> 200 µM						inactive	inactive	
C=C(C)[C@@H]1CC[C@]2(C(=O)O)CC[C@]3(C)[C@H](CC[C@@H]4[C@@]5(C)[C@@H](C(=O)O)[C@H](O)C(C)(C)[C@@H]5CC[C@]43C)[C@@H]12 [CEANOTHIC ACID]		195 µM	> 200 µM	> 200 µM						inactive	inactive	
C=C(C)[C@@H]1CC[C@]2(C(=O)O)CC[C@]3(C)[C@H](CC[C@@H]4[C@@]5(C)[C@H](C=O)[C@@H](O)C(C)(C)[C@@H]5CC[C@]43C)[C@@H]12 [COLUBRINIC ACID]	Dose-dependent effect	43 µM	78 µM	167 µM	Dose-dependent effect	Dose-dependent effect		Active	Active			Dose-dependent effect
